Usually EC50 stands for the midpoint of the concentration-response curve. A lower EC50 goes with greater potency. As a reminder, the inhibition is the relative decrease from the control value, in per cent.

Counter-ions that a name gives are not always drawn. Like-named read-outs stand apart in the source and are kept apart here.

We go through 30 compounds from US7419980B2, “Fused-aryl and heteroaryl derivatives and methods of their use” (Wyeth, priority 2003, dated 2008).

For this assay, the target named is T1, human hNET (Homo sapiens, UniProt P23975).
T1 construct: expressed in transfected cells; host or cells: MDCK-Net6 (MDCK cells stably transfected with hNET)
T1 sequence (P23975 whole entry): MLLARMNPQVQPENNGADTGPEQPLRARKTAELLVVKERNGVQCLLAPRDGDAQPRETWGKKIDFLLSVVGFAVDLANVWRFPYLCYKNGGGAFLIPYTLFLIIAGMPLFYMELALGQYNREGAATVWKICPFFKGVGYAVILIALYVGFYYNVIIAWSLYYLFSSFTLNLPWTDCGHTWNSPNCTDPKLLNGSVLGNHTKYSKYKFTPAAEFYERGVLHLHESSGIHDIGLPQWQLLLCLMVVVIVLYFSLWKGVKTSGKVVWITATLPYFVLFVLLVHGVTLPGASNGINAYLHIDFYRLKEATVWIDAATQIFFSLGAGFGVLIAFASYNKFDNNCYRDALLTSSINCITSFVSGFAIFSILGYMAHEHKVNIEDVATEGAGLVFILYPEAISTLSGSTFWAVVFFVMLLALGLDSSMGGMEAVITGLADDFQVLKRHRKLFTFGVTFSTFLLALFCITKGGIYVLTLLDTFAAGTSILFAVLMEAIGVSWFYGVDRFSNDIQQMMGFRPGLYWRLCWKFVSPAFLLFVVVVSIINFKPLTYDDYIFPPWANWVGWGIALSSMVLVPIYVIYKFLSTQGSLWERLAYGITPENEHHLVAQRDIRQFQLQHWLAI
Put plainly: Norepinephrine (NE) uptake assay in MDCK-Net6 cells. The class given is cell-based. The procedure: MDCK-Net6 cells, stably transfected with human hNET (Pacholczyk, T., R. D. Blakely, and S. G. Amara, Nature, 1991, 350(6316): p. 350-4) were cultured in growth medium containing high glucose DMEM (Gibco, Cat. No. 11995), 10% FBS (dialyzed, heat-inactivated, US Bio-Technologies, Lot FBD1129HI) and 500 μg/ml G418 (Gibco, Cat. No. 10131). Cells were plated at 300,000/T75 flask and cells were split twice weekly. The JAR cell line (human placental choriocarcinoma) was purchased from ATCC (Cat. No. HTB-144). The cells were cultured in growth medium containing RPMI 1640 (Gibco, Cat. No. 72400), 10% FBS (Irvine, Cat. No. 3000), 1% sodium pyruvate (Gibco, Cat. No. 1136) and 0.25% glucose. Cells were plated at 250,000 cells/T75 flask and split twice weekly. For all assays, cells were plated in Wallac 96-well sterile plates (PerkinElmer, Cat. No. 3983498).
On day 1, cells were plated at 3,000 cells/well in growth medium and maintained in a cell incubator (37° C., 5% CO2). On day 2, growth medium was replaced with 200 μl of assay buffer (25 mM HEPES; 120 mM NaCl; 5 mM KCl; 2.5 mM CaCl2; 1.2 mM MgSO4; 2 mg/ml glucose (pH 7.4, 37° C.)) containing 0.2 mg/ml ascorbic acid and 10 μM pargyline. Plates containing cells with 200 μl of assay buffer were equilibrated for 10 minutes at 37° C. prior to addition of compounds. A stock solution of desipramine was prepared in DMSO (10 mM) and delivered to triplicate wells containing cells for a final tert concentration of 1 μM. Data from these wells were used to define non-specific NE uptake (minimum NE uptake). Test compounds were prepared in DMSO (10 mM) and diluted in assay buffer according to tert range (1 to 10,000 nM). Twenty-five microliters of assay buffer (maximum NE uptake) or tert compound were added directly to triplicate wells containing cells in 200 μl of assay buffer. The cells in assay buffer with tert compounds were incubated for 20 minutes at 37° C. To initiate the NE uptake, [^3H]NE diluted in assay buffer (120 nM final assay concentration) was delivered in 25 μl aliquots to each well and the plates were incubated for 5 minutes (37° C.). The reaction was terminated by decanting the supernatant from the plate. The plates containing cells were washed twice with 200 μl assay buffer (37° C.) to remove free radioligand. The plates were then inverted, left to dry for 2 minutes, then reinverted and air-dried for an additional 10 minutes. The cells were lysed in 25 μl of 0.25 N NaOH solution (4° C.), placed on a shake table and vigorously shaken for 5 minutes. After cell lysis, 75 μl of scintillation cocktail was added to each well and the plates were sealed with film tape. The plates were returned to the shake table and vigorously shaken for a minimum of 10 minutes to ensure adequate partitioning of organic and aqueous solutions. The plates were counted in a Wallac Microbeta counter (PerkinElmer) to collect the raw cpm data.
For each experiment, a data stream of cpm values collected from the Wallac Microbeta counter was downloaded to a Microsoft Excel statistical application program. Calculations of EC50 values were made using the transformed-both-sides logistic dose response program written by Wyeth Biometrics Department. The statistical program uses mean cpm values from wells representing maximum binding or uptake (assay buffer) and mean cpm values from wells representing minimum binding or uptake ((1 μM desipramine (hNET) or 1 μM paroxetine (hSERT)). Estimation of the EC50 value was completed on a log scale and the line was fit between the maximum and minimum binding or uptake values. All graphic data representation was generated by normalizing each data point to a mean percent based on the maximum and minimum binding or uptake values. The EC50 values reported from multiple experiments were calculated by pooling the raw data from each experiment and analyzing the pooled data as one experiment.

Setting [1] is: 1 μM test compound, [3H]NE uptake, MDCK-Net6 cells, read-out: % Inhibition @ 1 μM (hNET).
Setting [2] is: MDCK-Net6, read-out: % Inhibition @ 1 μM (hNET).

In the case of `OC1(C(CN2CCNCC2)c2cccc(Cl)c2)CCCCC1` (stereo not shown) [Example 1, 1-[1-(3-chlorophenyl)-2-piperazin-1-ylethyl]cyclohexanol Dihydrochloride], for the setting “[3H]NE uptake, MDCK-Net6 cells”, the concentration for a half-maximal effect (EC50) came out at 18 nM.
For `OC1(C(CN2CCNCC2)c2ccc3ccccc3c2)CCC1` (stereo not shown) [Example 5, 1-[1-(2-naphthyl)-2-piperazin-1-ylethyl]cyclobutanol Dihydrochloride], the inhibition at 1 µM under setting [1] amounted to 97%. Besides, under “[3H]NE uptake, MDCK-Net6 cells”, the EC50 was determined as 160 nM.
Take `OC1(C(CN2CCNCC2)c2cccc3ccccc23)CCCCC1` (stereo not shown) [Example 21, 1-[1-(1-naphthyl)-2-piperazin-1-ylethyl]cyclohexanol Dihydrochloride]: the inhibition at 1 µM under setting [1] was found to be 86%. Further, the EC50 ([3H]NE uptake, MDCK-Net6 cells) was found to be 57 nM.
Regarding `OC1(C(CN2CCNCC2)c2cccc3ccccc23)CCCC1` (stereo not shown) [Example 45, 1-[1-(1-naphthyl)-2-piperazin-1-ylethyl]cyclopentanol Dihydrochloride], the inhibition at 1 µM under setting [1] was determined as 44%.
For the compound `CCC(O)(CC)C(CN1CCNCC1)c1cccc2ccccc12` (stereo not shown) [Example 53, 3-ethyl-2-(1-naphthyl)-1-piperazin-1-ylpentan-3-ol Dihydrochloride], the inhibition at 1 µM under setting [1] is 34%.
On the same count and under the same terms, in the case of `CN1CCN(CC(c2cccc3ccccc23)C2(O)CCCC2)CC1` (stereo not shown) [Example 56, 1-[2-(4-methylpiperazin-1-yl)-1-(1-naphthyl)ethyl]cyclopentanol Dihydrochloride] it was 36%; in that of `CN1CCC(O)(C(CN2CCNCC2)c2ccc3ccccc3c2)CC1` (stereo not shown) [Example 59, 1-methyl-4-[1-(2-naphthyl)-2-piperazin-1-ylethyl]piperidin-4-ol Dihydrochloride], 33%; in that of `OC1(C(CN2CCNCC2)c2ccc3ccccc3c2)CCCCC1` (stereo not shown) [Example 63, 1-[1-(2-naphthyl)-2-piperazin-1-ylethyl]cyclohexanol Dihydrochloride], 26%.
In the case of `CN1CCN(CC(c2ccc3ccccc3c2)C2(O)CCCCC2)CC1` (stereo not shown) [Example 64, 1-[2-(4-methylpiperazin-1-yl)-1-(2-naphthyl)ethyl]cyclohexanol Dihydrochloride], the inhibition at 1 µM under setting [1] was found to be 28%.
In the case of `OC1(C(CN2CCNCC2)c2cccc3ccccc23)CCC1` (stereo not shown) [Example 68, 1-[1-(1-naphthyl)-2-piperazin-1-ylethyl]cyclobutanol Dihydrochloride], the inhibition at 1 µM under setting [1] was 23%.
In the case of `CN1CCN(CC(c2cccc3ccccc23)C2(O)CCC2)CC1` (stereo not shown) [Example 69, 1-[2-(4-methylpiperazin-1-yl)-1-(1-naphthyl)ethyl]cyclobutanol Dihydrochloride], under setting [1], the inhibition at 1 µM amounted to 26%.
The same measure, in the same setting: next, `CC(C)(C)C1CCC(O)(C(CN2CCNCC2)c2cccc3ccccc23)CC1` (stereo not shown) [Example 76, 4-tert-butyl-1-[1-(1-naphthyl)-2-piperazin-1-ylethyl]cyclohexanol Dihydrochloride]: 22%.
Same read-out and setting: next, `CCC(O)(CC)C(CN1CCN(C)CC1)c1cccc2ccccc12` (stereo not shown) [Example 89, 3-ethyl-1-(4-methylpiperazin-1-yl)-2-(1-naphthyl)pentan-3-ol Dihydrochloride]: 15%.
In the case of `CCC1CCC(O)(C(CN2CCNCC2)c2cccc3ccccc23)CC1` (stereo not shown) [Example 91, 4-ethyl-1-[1-(1-naphthyl)-2-piperazin-1-ylethyl]cyclohexanol Dihydrochloride], the inhibition at 1 µM under setting [1] was determined as 14%.
Still for that read-out and setting: next, `CC1CCC(O)(C(CN2CCNCC2)c2cccc3ccccc23)CC1` (stereo not shown) [Example 97, 4-methyl-1-[1-(1-naphthyl)-2-piperazin-1-ylethyl]cyclohexanol Dihydrochloride]: 5%; `CN1CCN(CC(c2cccc3ccccc23)C2(O)CCC(C(C)(C)C)CC2)CC1` (stereo not shown) [Example 100, 4-tert-butyl-1-[2-(4-methylpiperazin-1-yl)-1-(1-naphthyl)ethyl]cyclohexanol Dihydrochloride]: 4%; `CN1CCC(O)(C(CN2CCOCC2)c2ccc3ccccc3c2)CC1` (stereo not shown) [Example 102, 1-methyl-4-[2-morpholin-4-yl-1-(2-naphthyl)ethyl]piperidin-4-ol Hydrochloride]: 3%.
The same measure, in the same setting: next, `OC1(C(CN2CCOCC2)c2ccc3ccccc3c2)CCCCC1` (stereo not shown) [Example 106, 1-[2-morpholin-4-yl-1-(2-naphthyl)ethyl]cyclohexanol Hydrochloride]: 2%.
With `OC1(C(CN2CCOCC2)c2ccc3ccccc3c2)CCC1` (stereo not shown) [Example 109, 1-[2-morpholin-4-yl-1-(2-naphthyl)ethyl]cyclobutanol Hydrochloride], the inhibition at 1 µM under setting [1] was 0%.
In the case of `OC1(C(CN2CCNCC2)c2cc(Cl)sc2Cl)CCCCC1` (stereo not shown) [Example 141, 1-[1-(2,5-dichlorothien-3-yl)-2-piperazine-1-ylethyl]cyclohexanol Dihydrochloride], the inhibition at 1 µM under setting [2] came out at 94%. The compound further came in with a concentration giving a half-maximal response (EC50) ([3H]NE uptake, MDCK-Net6 cells) of 240 nM.
Consider `OC1(C(CN2CCNCC2)c2ccc(Cl)s2)CCCCC1` (stereo not shown) [Example 142, 1-[1-(5-chlorothien-2-yl)-2-piperazin-1-ylethyl]cyclohexanol Dihydrochloride], for which, under setting [1], the inhibition at 1 µM was found to be 51%.
On the same count and under the same terms, in the case of `OC1(C(CN2CCNCC2)c2ccc(Br)s2)CCCCC1` (stereo not shown) [Example 143, 1-[1-(5-bromothien-2-yl)-2-piperazin-1-ylethyl]cyclohexanol Dihydrochloride] it was 47%.
Turning to `OC1(C(CN2CCNCC2)c2csc(Cl)c2)CCCCC1` (stereo not shown) [Example 144, 1-[1-(5-chlorothien-3-yl)-2-piperazin-1-ylethyl]cyclohexanol Dihydrochloride], the inhibition at 1 µM under setting [2] was determined as 86%. The compound further came in with a concentration giving a half-maximal response (EC50) ([3H]NE uptake, MDCK-Net6 cells) of 100 nM.
Take `NC1CCN(CC(c2csc(Cl)c2)C2(O)CCCCC2)CC1` (stereo not shown) [Example 145, 1-[2-(4-aminopiperidin-1-yl)-1-(5-chlorothien-3-yl)ethyl]cyclohexanol Dihydrochloride]: under setting [2], the inhibition at 1 µM was determined as 38%.
As to `OC1(C(CN2CCNCC2)c2csc3ccccc23)CCCCC1` (stereo not shown) [Example 146, 1-[1-(1-benzothien-3-yl)-2-piperazin-1-ylethyl]cyclohexanol Dihydrochloride], the inhibition at 1 µM under setting [2] stood at 82%. In addition, the midpoint of the response ([3H]NE uptake, MDCK-Net6 cells), the EC50, lay at 120 nM.
In the case of `Cn1cc(C(CN2CCNCC2)C2(O)CCCCC2)c2ccccc21` (stereo not shown) [Example 154, 1-[1-(1-methyl-1H-indol-3-yl)-2-piperazin-1-ylethyl]cyclohexanol Dihydrochloride], under setting [1], the inhibition at 1 µM stood at 32%.
On the same count and under the same terms, in the case of `OC1(C(CN2CCNCC2)c2c[nH]c3ccccc23)CCCCC1` (stereo not shown) [Example 155, 1-[1-(1H-indol-3-yl)-2-piperazin-1-ylethyl]cyclohexanol Dihydrochloride] it was 21%.
For the compound `OC1(C(CN2CCNCC2)c2ccsc2Cl)CCCCC1` (stereo not shown) [Example 156, 1-[1-(2-chlorothien-3-yl)-2-piperazin-1-ylethyl]cyclohexanol Dihydrochloride], under setting [2], the inhibition at 1 µM was 55%. The compound also came in with an EC50 ([3H]NE uptake, MDCK-Net6 cells) of 720 nM.
The matching figures for `CN1CCN(CC(c2csc(Cl)c2)C2(O)CCCCC2)CC1` (stereo not shown) [Example 159, 1-[1-(5-chlorothien-3-yl)-2-(4-methylpiperazin-1-yl)ethyl]cyclohexanol Dihydrochloride]: 88% and 25 nM.
Turning to `CN1CCN(C[C@@H](c2csc(Cl)c2)C2(O)CCCCC2)CC1` [Example 258, 1-[(1R)-1-(5-chlorothien-3-yl)-2-(4-methylpiperazin-1-ylethyl]cyclohexanol Dihydrochloride], under setting [2], the inhibition at 1 µM stood at 91%.
